Results on 8 molecules are retold here after US10183015B2, “Heterocyclic compounds and methods of use” (Medivation Technologies LLC, priority 2015, dated 2019).

One data set has as its system SREBP2. The data set is described as follows: SREBP2 cleavage in HepG2 cells (Western blot). It counts as cell-based. Particulars: 20 μM, 1 day, DMEM without FBS. The method, then: (§1) Cancer cells such as HepG2 cells depend on SREBP activation and de novo lipogenesis to survive, particularly in low serum or serum-free conditions. Using this model, compounds were screened over 24 hours for the ability to block cleavage of SREBP to its active form and over 72 hours for an effect on cell viability under serum-free conditions.
Average SREBP2 cleavage in HepG2 cells was measured in the presence of compounds disclosed in Table 1. HepG2 cells were seeded at 500,000 cells per well in 6-well plates in DMEM supplemented with 10% FBS. After 2 days, cells were treated with compounds (20 μM) for 1 day in DMEM without FBS. Western blots were normalized with respect to actin.
For orientation: Immunoblotting shows a protein as a band on a membrane.

The next data set relates to HepG2 cells. The data set is described as follows: HepG2 cell viability under serum-free conditions (MTS). It counts as cell-based. The note with it: Homo sapiens, HepG2, 72 h, 3 days, DMEM without FBS, read-out: Average Viability (% Inhibition, n = 3). The protocol: as §1
For viability measurements, HepG2 cells were seeded at 5,000 cells per well in 96-well plates in DMEM supplemented with 10% FBS. After 1 day in culture, cells were treated with compounds (20 μM & 5 μM) for 3 days in DMEM without FBS. Viability was measured by MTS […]. […]

The nature of data set [1]: PK parameters for representative compounds (i.v. and p.o.), Table 4. Particulars: in vivo; for half-life: read-out: Terminal t1/2 (converted).

Like-named read-outs stand apart in the source and are kept apart here.

A word on the AUC(0-t): it is the area under the concentration-time curve up to a stated or last time point. High values mean high exposure, low ones low exposure. What is called Cmax is the maximum level reached in the sampled fluid or tissue. Usually Tmax stands for the time from dosing to the highest level. Take `CC(C)(C)c1cc(-c2nc(-c3ccc(NS(=O)(=O)C(F)(F)F)cc3Cl)cs2)ccn1` [Compound 5, N-(4-(2-(2-tert-butylpyridin-4-yl)thiazol-4-yl)-3-chlorophenyl)-1,1,1-trifluoromethanesulfonamide]: in the data set with SREBP2, the “Average SREBP2 cleavage (% Inhibition, n = 3)” value came to 81.7%. In addition, in the data set on HepG2 cells (20 μM), the cytotoxicity at 20 µM worked out at 99.2%. Besides, in data set [1] (iv, i.v. @ 2 mg/kg), the AUC(0-t) was 41 µM·h, the Cmax stood at 10.2 µM, the Vd turned out to be 0.345 L/kg and the clearance is 1.58 mL/min/kg. Also, the half-life in data set [1] (iv, i.v. @ 2 mg/kg) was 2.51 h. Besides, in data set [1] (po, p.o. @ 10 mg/kg), the AUC(0-t) worked out at 302 µM·h, the Cmax was 20.3 µM, the Tmax stood at 1 h and the half-life was 6.96 h. Also, the bioavailability in data set [1] (po, p.o. @ 10 mg/kg vs i.v. @ 2 mg/kg) stood at 149%.

In the case of `O=S(=O)(Nc1ccc(-c2csc(-c3cccc(N4CCCCC4)c3)n2)c(Cl)c1)C(F)(F)F` [Compound 88, N-(3-chloro-4-{2-[3-(piperidin-1-yl)phenyl]-1,3-thiazol-4-yl}phenyl)-1,1,1-trifluoromethanesulfonamide], in the data set on HepG2 cells, the cytotoxicity at 5 µM turned out to be 19%.

Take `O=S(=O)(Nc1ccc(-c2csc(-c3csc4ccccc34)n2)c(Cl)c1)C(F)(F)F` [Compound 90, N-{4-[2-(1-benzothiophen-3-yl)-1,3-thiazol-4-yl]-3-chlorophenyl}-1,1,1-trifluoromethanesulfonamide]: the cytotoxicity at 5 µM with HepG2 cells is 99%.

With `O=S(=O)(Nc1ccc(-c2csc(-c3ccc(F)cc3CN3CCCC3)n2)c(Cl)c1)C(F)(F)F` [Compound 91, N-(3-chloro-4-{2-[4-fluoro-2-(pyrrolidin-1-ylmethyl)phenyl]-1,3-thiazol-4-yl}phenyl)-1,1,1-trifluoromethanesulfonamide], the cytotoxicity at 5 µM with HepG2 cells was 4%.

For `O=S(=O)(Nc1ccc(-c2csc(-c3ccnc(NC4CCCC4)c3)n2)c(Cl)c1)C(F)(F)F` [Compound 92, N-(3-chloro-4-{2-[2-(cyclopentylamino)pyridin-4-yl]-1,3-thiazol-4-yl}phenyl)-1,1,1-trifluoromethanesulfonamide], the cytotoxicity at 5 µM in the data set with HepG2 cells was 94%.

With `O=S(=O)(Nc1ccc(-c2csc(-c3c[nH]c4ccccc34)n2)c(Cl)c1)C(F)(F)F` [Compound 93, N-{3-chloro-4-[2-(1H-indol-3-yl)-1,3-thiazol-4-yl]phenyl}-1,1,1-trifluoromethanesulfonamide], in the data set with HepG2 cells, the cytotoxicity at 5 µM came out at 82%.

As for `O=S(=O)(Nc1ccc(-c2csc(-c3ccnc4ccccc34)n2)c(Cl)c1)C(F)(F)F` [Compound 94, N-[3-chloro-4-[2-(4-quinolyl)thiazol-4-yl]phenyl]-1,1,1-trifluoro-methanesulfonamide], the cytotoxicity at 5 µM with HepG2 cells came to 84%.

Turning to `O=S(=O)(Nc1ccc(-c2csc(-c3ccnc(Cl)c3)n2)c(Cl)c1)C(F)(F)F` [Compound 95, N-(3-chloro-4-(2-(2-chloropyridin-4-yl)thiazol-4-yl)phenyl)-1,1,1-trifluoromethanesulfonamide], the cytotoxicity at 5 µM with HepG2 cells is 86%.
